According to patent publication US11957695B2, “Methods and compositions targeting glucocorticoid signaling for modulating immune responses” (The Broad Institute, Inc., priority 2018, dated 2024):
Values joined by “and” are separate entries in the source; they are usually repeats but may differ in a detail not shown here. Identical values can stand only once.

T1: glucocorticoid receptor (GR) (Homo sapiens, UniProt P04150)
T1 sequence (P04150 1-777): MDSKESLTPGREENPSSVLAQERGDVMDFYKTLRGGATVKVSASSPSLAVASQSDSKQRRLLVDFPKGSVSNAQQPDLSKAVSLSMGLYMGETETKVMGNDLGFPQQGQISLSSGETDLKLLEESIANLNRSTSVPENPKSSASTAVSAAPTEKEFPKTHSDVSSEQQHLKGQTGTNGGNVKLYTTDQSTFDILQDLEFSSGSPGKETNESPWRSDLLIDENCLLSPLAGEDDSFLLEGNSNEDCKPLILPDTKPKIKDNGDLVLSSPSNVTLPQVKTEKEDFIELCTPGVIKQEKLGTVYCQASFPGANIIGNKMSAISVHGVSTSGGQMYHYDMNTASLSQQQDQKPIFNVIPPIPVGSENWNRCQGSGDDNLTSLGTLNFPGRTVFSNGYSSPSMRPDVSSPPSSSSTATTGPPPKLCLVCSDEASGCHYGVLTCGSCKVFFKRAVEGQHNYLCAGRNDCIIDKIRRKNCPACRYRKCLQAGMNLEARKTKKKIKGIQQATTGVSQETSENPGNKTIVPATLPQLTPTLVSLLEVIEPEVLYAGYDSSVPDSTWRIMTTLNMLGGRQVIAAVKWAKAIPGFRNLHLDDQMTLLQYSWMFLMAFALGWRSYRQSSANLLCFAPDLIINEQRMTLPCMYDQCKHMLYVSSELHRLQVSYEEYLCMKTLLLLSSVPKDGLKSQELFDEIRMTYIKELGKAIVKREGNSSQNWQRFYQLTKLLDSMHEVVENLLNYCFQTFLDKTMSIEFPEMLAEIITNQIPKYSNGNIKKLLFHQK

B1: IL-27: heterodimeric cytokine and a member of the IL-12 family of cytokines that is produced by antigen presenting cells (protein, UniProt Q8NEV9 29-243; Q14213 21-229, looked up)
Interleukin-27 subunit alpha: FPRPPGRPQLSLQELRREFTVSLHLARKLLSEVRGQAHRFAESHLPGVNLYLLPLGEQLPDVSLTFQAWRRLSDPERLCFISTTLQPFHALLGGLGTQGRWTNMERMQLWAMRLDLRDLQRHLRFQVLAAGFNLPEEEEEEEEEEEEERKGLLPGALGSALQGPAQVSWPQLLSTYRLLHSLELVLSRAVRELLLLSKAGHSVWPLGFPTLSPQP
Interleukin-27 subunit beta: RKGPPAALTLPRVQCRASRYPIAVDCSWTLPPAPNSTSPVSFIATYRLGMAARGHSWPCLQQTPTSTSCTITDVQLFSMAPYVLNVTAVHPWGSSSSFVPFITEHIIKPDPPEGVRLSPLAERQLQVQWEPPGSWPFPEIFSLKYWIRYKRQGAARFHRVGPIEATSFILRAVRPRARYYVQVAAQDLTDYGELSDWSLPATATMSLGK

Key:
[1] = molecular target: T1, glucocorticoid receptor (GR); conditions: cited from earlier work
[2] = in vivo; cited from earlier work
[3] = system: Naïve CD8+ T cells; experiment: RNA-Seq of naïve CD8+ T cells cultured with anti CD3/28 in the presence of Dex (GC), IL-27 or GC+IL-27 (Tables 1, 2A, 2B, 5-7); type: cell-based, mouse
Protocol: (§1) Cell culture and treatment with glucocorticoid. CD8^+ T cells from splenocytes and lymph nodes were isolated using CD8 microbeads (Miltenyi). Cells were further stained with antibodies against CD8, CD62L and CD44, and CD8^+CD62L^hiCD44^lo naive cells were sorted by BD FacsAria (BD Biosciences). Sorted cells were cultured for 9 days as described below in DMEM supplemented with 10% (vol/vol) FCS, […], 1 mM sodium pyruvate, nonessential amino acids, L-glutamine, and 100 U/ml penicillin and 100 µg/ml streptomycin.
RNA-Seq data pre-processing. […] Heatmap figures were generated using pheatmap package^53.
Analysis of additive and non-additive effects. To test whether the glucocorticoid and IL-27 signaling pathways had additive or non-additive effects on gene expression, Applicants stimulated naïve CD8^+ T cells in the presence of Dex, IL-27, or Dex+IL-27 in vitro. Applicants tested for non-additive effects between IL-27 and glucocorticoid signaling using a negative binomial generalized linear model in order to account for both estimations of the mean and the dispersion across conditions, where dispersion describes the relationship between the mean and variance. The model was applied to the expression data using ANOVA between a model that takes into account the interaction between IL27 and Dex versus no interaction.

[4] = system: Naïve CD8+ T cells; experiment: Quantitative RT-PCR of Prdm1, Nfil3 and Tcf7 in Ctrl, GC, IL-27 or GC+IL-27 treated cells; type: cell-based, mouse
Protocol: as §1
Quantitative PCR. Total RNA was extracted using RNeasy columns (Qiagen). Reverse transcription of mRNA was performed in a thermal cycler (Bio-Rad) using iScript cDNA Synthesis Kit (Bio-Rad). qPCR was performed in the Vii7 Real-Time PCR system (Applied Biosystems) using the primers for Taqman gene expression (Applied Biosystems). Data were normalized to the expression of Actb.

Molecule | Glucocorticoid potency [1] | Terminal half-life [2] | also measured
CC(=O)OCC(=O)[C@H]1CC[C@H]2[C@@H]3CCC4=CC(=O)CC[C@]4(C)[C@H]3CC[C@]12C [Deoxycorticosterone acetate] | 0 |  | 
C[C@]12CCC(=O)C=C1CC[C@@H]1[C@@H]2[C@@H](O)C[C@@]2(C)[C@H]1CC[C@]2(O)C(=O)CO [Cortisol (hydrocortisone), Cortisol] | 1 |  | 
C[C@]12C=CC(=O)C=C1CC[C@@H]1[C@@H]2[C@@H](O)C[C@@]2(C)[C@H]1CC[C@]2(O)C(=O)CO [Prednisolone] | 4 | 16 to 36 h | 
C[C@]12C=CC(=O)C=C1CC[C@H]1[C@@H]3C[C@@H](O)[C@](O)(C(=O)CO)[C@@]3(C)C[C@H](O)[C@@]12F [Triamcinolone] | 5 | 12 to 36 h | 
C[C@]12C=CC(=O)C=C1CC[C@@H]1[C@@H]2C(=O)C[C@@]2(C)[C@H]1CC[C@]2(O)C(=O)CO [Prednisone] |  | 16 to 36 h | 
C[C@]12CCC(=O)C=C1CC[C@@H]1[C@@H]2C(=O)C[C@@]2(C)[C@H]1CC[C@]2(O)C(=O)CO [Cortisone] | 0.8 |  | 
C[C@H]1C[C@@H]2[C@H]([C@@H](O)C[C@@]3(C)[C@H]2CC[C@]3(O)C(=O)CO)[C@@]2(C)C=CC(=O)C=C12 [Methylprednisolone] |  | 18 to 40 h | 
B1 |  |  | transcriptional state of stimulated CD8+ T cells ([3]; FIG. 12): transcriptionally distinct; Tcf7 expression levels ([3]; three values per treatment, control cells 9.93, 8.28, 11.45): 5.37 and 7.39 and 5.57; Nupr1 expression levels ([3]; three values per treatment, control cells 12.77, 13.57, 13.47): 11.93 and 21.86 and 19.79; CD28 expression levels ([3]; three values per treatment, control cells 19.54, 18.14, 18.29): 48.93 and 37.2 and 39.84; Lilrb4 expression levels ([3]; three values per treatment, control cells 87.12, 92.82, 96.51): 73.62 and 94.25 and 105.87; Tcf7 expression (qPCR) [4]: dramatically reduced
